The source of these data is patent publication US10022376B2 (Pfizer Inc., priority 2014, dated 2018).

The test deals with rhIFNγ stimulated STAT-3 phosphorylation in the A549 human epithelial cell line. Nature of the test: A549 Cell Assay: Inhibition of pSTAT3. The test is classed as cell-based. Conditions: Homo sapiens; A549 cells. How it is done:
A549 Cell Assay: Inhibition of pSTAT3
An assay measuring the efficacy of JAK inhibitors on the functional response of recombinant human interferon γ (rhIFNγ) stimulated STAT-3 phosphorylation in the A549 human epithelial cell line.
A549 cells (ATCC #CCL-185), were plated at 30,000 cells/well in 96 well flat bottomed tissue culture plates (BD#353072) in 200 μL of growth medium (DMEM, Pfizer media prep, with 10% Fetal Bovine Serum, Sigma #F4135, 2 mM L-Glutamine, Pfizer media prep, 100 U/mL penicillin, Pfizer media prep, and 200 μg/ml streptomycin, Pfizer media prep), and cultured at 37° C., 5% CO2 incubator for 18 hours. Growth medium was removed by vacuum aspiration (V&P Scientific #vp187 bp-60), and 90 μL of pre-warmed assay medium (DMEM with 0.2% BSA, Miltenyi #130-091-376) was added to each well and incubated for 15 minutes at 37° C. 10 μL of vehicle control or test compound (final concentration range of 0.3 nM to 10 μM with 0.1% DMSO) was added to the cells. Plates were incubated at 37° C. for 1 hour. After compound incubation, 10 μL of 220 ng/mL recombinant human IFNγ (R&D Systems #285-IF, final rhIFNγ concentration of 20 ng/mL) was added to the cells and plates were incubated for 30 minutes at 37° C. Wells containing A549 cells, medium with 0.1% DMSO and no rhIFNγ were used as background controls. After rhIFNγ stimulation, media was aspirated from each well and 35 μL/well of iced-cold MSD lysis buffer containing protease and phosphatase inhibitors from Phospho-STAT3 Tyr705 assay kit (Meso-Scale Discovery #K150DID) was added to each well. Plates were incubated at 4° C. with shaking for 30 minutes. Cell lysates were assayed following the MSD Phospho-STAT3 Tyr705 assay kit protocol to detect pSTAT3.
Data were collected and transformed into percent inhibition and calculated using the following formula: […]

What is called IC50 is the point on the concentration scale where inhibition reaches its midpoint. Lower therefore signals greater potency. As to `CCN(c1ccc(O)cc1CNc1nc(-c2cc(F)c(O)cc2CC(F)(F)F)cc2[nH]nc(C(N)=O)c12)S(=O)(=O)c1ccccc1` [Example 43, 4-({2-[ethyl(phenylsulfonyl)amino]-5-hydroxybenzyl}amino)-6-[5-fluoro-4-hydroxy-2-(2,2,2-trifluoroethyl)phenyl]-1H-pyrazolo[4,3-c]pyridine-3-carboxamide], half-maximal inhibition (IC50) was put at 764 nM.

For the compound `CNC(=O)c1n[nH]c2cc(-c3cc(F)c(O)cc3CC(F)(F)F)nc(NCc3nccnc3N(C)S(=O)(=O)c3ccccc3)c12` [Example 44, 6-[5-fluoro-4-hydroxy-2-(2,2,2-trifluoroethyl)phenyl]-N-methyl-4-[({3-[methyl(phenylsulfonyl)amino]pyrazin-2-yl}methyl)amino]-1H-pyrazolo[4,3-c]pyridine-3-carboxamide], the IC50 was 59.7 nM. This IC50 is about 13-fold lower than that of the compound before.

`CCN(c1nccnc1CNc1nc(-c2cc(F)c(O)cc2CC(F)(F)F)cc2[nH]nc(C(=O)NC)c12)S(C)(=O)=O` [Example 45, 4-[({3-[ethyl(methylsulfonyl)amino]pyrazin-2-yl}methyl)amino]-6-[5-fluoro-4-hydroxy-2-(2,2,2-trifluoroethyl)phenyl]-N-methyl-1H-pyrazolo[4,3-c]pyridine-3-carboxamide] came in with an IC50 of 46.5 nM.

On to `CN(c1ccccc1CNc1nc(-c2cc(F)c(O)cc2C2CC2)cc2[nH]nc(C(N)=O)c12)S(C)(=O)=O` [Example 47, 6-(2-cyclopropyl-5-fluoro-4-hydroxyphenyl)-4-({2-[methyl(methylsulfonyl)amino]benzyl}amino)-1H-pyrazolo[4,3-c]pyridine-3-carboxamide], for which the IC50 worked out at 282 nM.

`CNC(=O)c1n[nH]c2cc(-c3cc(F)c(O)cc3CC(F)(F)F)nc(NCc3cnccc3N(C)S(C)(=O)=O)c12` [Example 48, 6-[5-fluoro-4-hydroxy-2-(2,2,2-trifluoroethyl)phenyl]-N-methyl-4-[({4-[methyl(methylsulfonyl)amino]pyridin-3-yl}methyl)amino]-1H-pyrazolo[4,3-c]pyridine-3-carboxamide] returned an IC50 of more than 10000 nM.

The compound `CNC(=O)c1n[nH]c2cc(-c3cc(F)c(O)cc3C3CC3)nc(NCc3cccnc3N(C)S(C)(=O)=O)c12` [Example 49, 6-(2-cyclopropyl-5-fluoro-4-hydroxyphenyl)-N-methyl-4-[({2-[methyl(methylsulfonyl)amino]pyridin-3-yl}methyl)amino]-1H-pyrazolo[4,3-c]pyridine-3-carboxamide] showed an IC50 of 385 nM.

In the case of `CNC(=O)c1n[nH]c2cc(-c3cc(F)c(O)cc3CC(F)(F)F)nc(NCc3nccnc3N(C)S(C)(=O)=O)c12` [Example 51, 6-[5-fluoro-4-hydroxy-2-(2,2,2-trifluoroethyl)phenyl]-N-methyl-4-[({3-[methyl(methylsulfonyl)amino]pyrazin-2-yl}methyl)amino]-1H-pyrazolo[4,3-c]pyridine-3-carboxamide], the IC50 was 182 nM. This IC50 lies about 2.1-fold lower than the previous one.

`CCN(c1ncccc1CNc1nc(-c2cc(F)c(O)cc2CC(F)(F)F)cc2[nH]nc(C(N)=O)c12)S(C)(=O)=O` [Example 52, 4-[({2-[ethyl(methylsulfonyl)amino]pyridin-3-yl}methyl)amino]-6-[5-fluoro-4-hydroxy-2-(2,2,2-trifluoroethyl)phenyl]-1H-pyrazolo[4,3-c]pyridine-3-carboxamide] registered an IC50 of 74.3 nM.

The compound `CNC(=O)c1n[nH]c2cc(-c3cc(F)c(O)cc3CC(F)(F)F)nc(NCc3cccnc3N(C)S(C)(=O)=O)c12` [Example 53, 6-[5-fluoro-4-hydroxy-2-(2,2,2-trifluoroethyl)phenyl]-N-methyl-4-[({2-[methyl(methylsulfonyl)amino]pyridin-3-yl}methyl)amino]-1H-pyrazolo[4,3-c]pyridine-3-carboxamide] registered an IC50 of 21.3 nM.

`CNC(=O)c1n[nH]c2cc(-c3cc(F)c(O)cc3CC(F)(F)F)nc(NCc3ncccc3N(C)S(C)(=O)=O)c12` [Example 55, 6-[5-Fluoro-4-hydroxy-2-(2,2,2-trifluoroethyl)phenyl]-N-methyl-4-[({3-[methyl(methylsulfonyl)amino]pyridin-2-yl}methyl)amino]-1H-pyrazolo[4,3-c]pyridine-3-carboxamide]: the IC50 came to 156 nM. Against the preceding compound, the IC50 is about 7.3-fold higher.

Compound `CNC(=O)c1n[nH]c2cc(-c3cc(F)c(O)cc3CC(F)(F)F)nc(NCc3ccccc3N(C)S(=O)(=O)c3cn[nH]c3)c12` [Example 58, 6-(5-fluoro-4-hydroxy-2-(2,2,2-trifluoroethyl)phenyl)-N-methyl-4-((2-(N-methyl-1H-pyrazole-4-sulfonamido)benzyl)amino)-1H-pyrazolo[4,3-c]pyridine-3-carboxamide] yielded an IC50 of 174 nM. This IC50 and that of the compound before are within 1.5-fold of each other.

With `CNC(=O)c1n[nH]c2cc(-c3cc(F)c(O)cc3CC(F)(F)F)nc(NCc3ccccc3N(C)S(=O)(=O)CCOC)c12` [Example 60, 6-[5-fluoro-4-hydroxy-2-(2,2,2-trifluoroethyl)phenyl]-4-[(2-{[(2-methoxyethyl)sulfonyl](methyl)amino}benzyl)amino]-N-methyl-1H-pyrazolo[4,3-c]pyridine-3-carboxamide], the IC50 amounted to 34.4 nM.

`CN(c1ccccc1CNc1nc(-c2cc(F)c(O)cc2CC(F)(F)F)cc2[nH]nc(C(N)=O)c12)S(=O)(=O)c1cccnc1` [Example 61, 6-[5-fluoro-4-hydroxy-2-(2,2,2-trifluoroethyl)phenyl]-4-({2-[methyl(pyridin-3-ylsulfonyl)amino]benzyl}amino)-1H-pyrazolo[4,3-c]pyridine-3-carboxamide] came in with an IC50 of 71.2 nM.

For `CN(c1ncccc1CNc1nc(-c2cc(F)c(O)cc2CC(F)(F)F)cc2[nH]nc(C(N)=O)c12)S(C)(=O)=O` [Example 62, 6-[5-fluoro-4-hydroxy-2-(2,2,2-trifluoroethyl)phenyl]-4-[({2-[methyl(methylsulfonyl)amino]pyridin-3-yl}methyl)amino]-1H-pyrazolo[4,3-c]pyridine-3-carboxamide], 71.8 nM corresponded to half-maximal inhibition (IC50).

`CCN(c1ncccc1CNc1nc(-c2cc(F)c(O)cc2CC(F)(F)F)cc2[nH]nc(C(=O)NC)c12)S(C)(=O)=O` [Example 63, 4-[({2-[ethyl(methylsulfonyl)amino]pyridin-3-yl}methyl)amino]-6-[5-fluoro-4-hydroxy-2-(2,2,2-trifluoroethyl)phenyl]-N-methyl-1H-pyrazolo[4,3-c]pyridine-3-carboxamide] returned an IC50 of 14.6 nM.

Consider `CNC(=O)c1n[nH]c2cc(-c3cc(F)c(O)cc3CC(F)(F)F)nc(NCc3ccccc3CS(N)(=O)=O)c12` [Example 64, 6-[5-fluoro-4-hydroxy-2-(2,2,2-trifluoroethyl)phenyl]-N-methyl-4-{[2-(sulfamoylmethyl)benzyl]amino}-1H-pyrazolo[4,3-c]pyridine-3-carboxamide], for which the IC50 stood at 213 nM.

In the case of `CN(c1ccccc1CNc1nc(-c2cc(F)c(O)cc2CC(F)(F)F)cc2[nH]nc(C(N)=O)c12)S(=O)(=O)c1ccc(N2CCOCC2)nc1` [Example 65, 6-[5-fluoro-4-hydroxy-2-(2,2,2-trifluoroethyl)phenyl]-4-{[2-(methyl{[6-(morpholin-4-yl)pyridin-3-yl]sulfonyl}amino)benzyl]amino}-1H-pyrazolo[4,3-c]pyridine-3-carboxamide], the IC50 came out at 161 nM.

Turning to `CN(c1ccccc1CNc1nc(-c2cc(F)c(O)cc2CC(F)(F)F)cc2[nH]nc(C(N)=O)c12)S(=O)(=O)CCCN1CCOCC1` [Example 66, 6-[5-fluoro-4-hydroxy-2-(2,2,2-trifluoroethyl)phenyl]-4-{[2-(methyl{[3-(morpholin-4-yl)propyl]sulfonyl}amino)benzyl]amino}-1H-pyrazolo[4,3-c]pyridine-3-carboxamide], the concentration for half-maximal inhibition (IC50) was 221 nM.

Take `CNC(=O)c1n[nH]c2cc(-c3cc(F)c(O)cc3CC(F)(F)F)nc(NCc3cc(C)cnc3N(C)S(C)(=O)=O)c12` [Example 67, 6-[5-fluoro-4-hydroxy-2-(2,2,2-trifluoroethyl)phenyl]-N-methyl-4-[({5-methyl-2-[methyl(methylsulfonyl)amino]pyridin-3-yl}methyl)amino]-1H-pyrazolo[4,3-c]pyridine-3-carboxamide]: it took 104 nM to reach half-maximal inhibition (IC50).

Take `CNC(=O)c1n[nH]c2cc(-c3cc(F)c(O)cc3CC(F)(F)F)nc(NCc3ccccc3N(C)S(=O)(=O)c3cccnc3)c12` [Example 68, 6-[5-fluoro-4-hydroxy-2-(2,2,2-trifluoroethyl)phenyl]-N-methyl-4-({2-[methyl(pyridin-3-ylsulfonyl)amino]benzyl}amino)-1H-pyrazolo[4,3-c]pyridine-3-carboxamide]: the IC50 was found to be 43.9 nM.

Consider `CNC(=O)c1n[nH]c2cc(-c3cc(F)c(O)cc3CC(F)(F)F)nc(NCc3ccccc3N(C)S(=O)(=O)c3ccc(C)nc3)c12` [Example 69, 6-[5-fluoro-4-hydroxy-2-(2,2,2-trifluoroethyl)phenyl]-N-methyl-4-[(2-{methyl[(6-methylpyridin-3-yl)sulfonyl]amino}benzyl)amino]-1H-pyrazolo[4,3-c]pyridine-3-carboxamide], for which the IC50 is 91.6 nM. Compared with the last compound, the IC50 is about 2.1-fold higher.
